Like-named read-outs stand apart in the source and are kept apart here.

This is an account of results in paper PMC6438731, “Extrasynaptic δ‐GABAA receptors are high‐affinity muscimol receptors” (Journal of Neurochemistry, 2019).

For experiment [1], the target named is α4β3δ receptors. Also noted: method as in Mortensen et al. 2010. The following applies: recombinantly expressed α4β3δ receptors, ref Mortensen et al. 2010; read-out: muscimol EC50; cited from earlier work.
The subject of another experiment is α1βγ2 GABAARs. Also noted: method as in Karim et al. 2013. The conditions noted are these: ref Karim et al. 2013; cited from earlier work.
Experiment [2] addresses T1, recombinant α4β3 receptors (Homo sapiens, UniProt P28472+P48169).
T1 construct: expressed in transfected cells; host or cells: Xenopus laevis oocytes injected with cRNA
Description: Muscimol currents, two electrode voltage clamp in Xenopus oocytes, α4β3. The conditions noted are these: α4β3‐injected oocytes, without δ. Format: cell-based. From the text: (§1) Human α4, α6, β3, and δ cDNA clones for oocyte expression were made by PCR amplification of the coding region (NcoI site introduced with the amplifying 5′ oligonucleotide at the ATG initiation codon) and a HindIII (or SpeI) containing oligo) and cloning it into a NcoI‐HindIII (or SpeI) cut vector backbone derived from pEGFP‐N1 (Addgene 6085‐1). The entire transcribed region was confirmed by sequencing to ensure that protein sequences conform to consensus sequences found in the RefSeq database (https://www.ncbi.nlm.gov/RefSeq). Plasmids were linearized with NotI (New England Biolabs) and cRNA was transcribed, using T7 RNA polymerase (Ambion, mMESSAGE mMACHINE T7 Transcription Kit, Ambion Austin TX, USA, Cat. No. 1344). Xenopus laevis (Nasco, product number LM00531) oocytes were prepared from oocyte lobes shared by Dr. Olcese (UCLA, Anesthesiology). The oocytes were injected with 2 ng of each α6 and β3 subunit cRNA alone or together with 10 ng δ cRNA. Currents were measured 5–10 days after injection by two electrode voltage clamp using an Axoclamp 2B amplifier and pCLAMP software. Drug solutions were applied in ND96 (in mM 96 NaCl, 2 KCl, 1.8 CaCl2, 1 MgCl2, 5 HEPES pH 7.4) by gravity perfusion with bath exchange time of about 2 s. Muscimol was prepared as an aqueous 100 mM stock solution.

In another experiment the target is α6β3δ receptors. Also noted: method as in Stórustovu and Ebert 2006. The conditions noted are these: recombinantly expressed α6β3δ receptors, ref Stórustovu and Ebert 2006; read-out: muscimol EC50; cited from earlier work.
The target in experiment [3] is T2, recombinant α4β3δ receptors (Homo sapiens, UniProt O14764+P28472+P48169).
T2 construct: expressed in transfected cells; host or cells: Xenopus laevis oocytes injected with cRNA
T2 sequence (P48169 36-554): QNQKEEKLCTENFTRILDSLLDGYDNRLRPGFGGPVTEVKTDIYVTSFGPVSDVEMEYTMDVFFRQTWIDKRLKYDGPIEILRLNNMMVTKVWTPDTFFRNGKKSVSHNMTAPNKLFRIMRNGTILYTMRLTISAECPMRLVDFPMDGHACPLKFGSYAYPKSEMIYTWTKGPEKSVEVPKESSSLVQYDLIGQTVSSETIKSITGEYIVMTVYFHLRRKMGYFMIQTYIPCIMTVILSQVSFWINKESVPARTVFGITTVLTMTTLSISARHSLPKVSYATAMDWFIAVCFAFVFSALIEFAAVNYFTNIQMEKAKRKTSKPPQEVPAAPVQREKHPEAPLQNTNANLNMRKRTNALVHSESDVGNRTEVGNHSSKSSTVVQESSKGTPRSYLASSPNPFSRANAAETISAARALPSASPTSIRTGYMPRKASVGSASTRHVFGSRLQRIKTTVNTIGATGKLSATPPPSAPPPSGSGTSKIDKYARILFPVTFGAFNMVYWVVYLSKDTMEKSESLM
T2 sequence (P28472 26-473): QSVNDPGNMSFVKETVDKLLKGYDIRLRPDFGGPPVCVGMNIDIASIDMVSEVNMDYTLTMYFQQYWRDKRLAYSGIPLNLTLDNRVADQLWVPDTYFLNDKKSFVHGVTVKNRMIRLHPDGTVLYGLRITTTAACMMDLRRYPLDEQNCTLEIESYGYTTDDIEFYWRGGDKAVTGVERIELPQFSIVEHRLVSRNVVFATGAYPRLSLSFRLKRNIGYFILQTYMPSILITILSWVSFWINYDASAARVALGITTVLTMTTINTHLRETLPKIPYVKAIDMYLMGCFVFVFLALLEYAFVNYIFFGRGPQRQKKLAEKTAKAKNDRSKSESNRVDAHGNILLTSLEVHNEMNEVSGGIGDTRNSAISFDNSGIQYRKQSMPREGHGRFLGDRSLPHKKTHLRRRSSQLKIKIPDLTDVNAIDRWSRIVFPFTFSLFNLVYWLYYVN
T2 sequence (O14764 25-452): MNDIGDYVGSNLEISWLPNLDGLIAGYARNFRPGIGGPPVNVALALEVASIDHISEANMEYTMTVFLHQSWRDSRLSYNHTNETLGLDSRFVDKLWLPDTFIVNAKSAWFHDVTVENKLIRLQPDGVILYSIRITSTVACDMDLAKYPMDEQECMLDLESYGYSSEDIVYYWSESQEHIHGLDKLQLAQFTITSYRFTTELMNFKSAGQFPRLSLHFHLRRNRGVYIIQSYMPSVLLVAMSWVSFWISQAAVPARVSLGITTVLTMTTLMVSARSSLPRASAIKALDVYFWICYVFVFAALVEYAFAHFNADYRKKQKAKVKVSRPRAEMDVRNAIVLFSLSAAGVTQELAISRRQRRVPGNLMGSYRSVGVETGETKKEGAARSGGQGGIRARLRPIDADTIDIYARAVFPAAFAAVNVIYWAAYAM
In words: Muscimol currents, two electrode voltage clamp in Xenopus oocytes, α4β3δ. In kind it is cell-based.
Excerpt: as §1

The target of experiment [4] is α4β3δ receptors. On the set-up: method as in Stórustovu and Ebert 2006. The conditions noted are these: recombinantly expressed α4β3δ receptors, ref Stórustovu and Ebert 2006; read-out: muscimol EC50; cited from earlier work.
Experiment [5] relates to different GABAAR subtypes. Description: Affinity of muscimol compared with GABA across GABAAR subtypes. The following applies: across the board for different GABAAR subtypes.

T1 sequence (P48169 36-554): as the sequence (P48169 36-554) above
T1 sequence (P28472 26-473): as the sequence (P28472 26-473) above

On to `NCc1cc(=O)[nH]o1` [muscimol], for which the EC50 was 200 nM at α4β3δ receptors [1]; about 1000 nM in the experiment on α1βγ2 GABAARs; 160 nM at α6β3δ receptors; 1 to 2 nM in experiment [3] (α4β3δ in Xenopus oocytes, estimated/approximate, read-out: EC50 of the high‐muscimol affinity (slowly deactivating) current component); 2280 nM at α4β3δ receptors [4]. The “threshold muscimol concentration evoking currents” value in experiment [2] is “about 30 nM”; in experiment [3] (α4β3δ‐injected oocytes), 0.1 nM. In addition, the “higher affinity than GABA” value in experiment [5] is listed as 100–1000 times.
